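A five-concentration, 48-hour dose response in 96-well plates underlies each endpoint, interpolated linearly between surrounding concentrations. Here, GI50 denotes the concentration required for 50% inhibition of growth. The concentration for full growth arrest is given as TGI.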
Legend:
Experiment in all cases: NCI tumour cell line growth inhibition, 48 h
[1] = system: A498 renal
[2] = system: BT-549 breast
[3] = system: HOP-92 NSCLC
[4] = system: MDA-MB-435
[5] = system: SK-MEL-28 melanoma
[6] = system: U251 CNS
[7] = system: UO-31 renal
[8] = system: 786-0 renal
[9] = system: TK-10 renal
[10] = system: T-47D breast
[11] = system: SN12C renal
[12] = system: NCI/ADR-RES ovarian
[13] = system: A549 NSCLC
[14] = system: SK-MEL-5 melanoma
[15] = system: PC-3 prostate
[16] = system: UACC-62 melanoma
[17] = system: HT29 colon
[18] = system: HOP-62 NSCLC
[19] = system: RPMI-8226 leukemia
[20] = system: SF-268 CNS
[21] = system: EKVX NSCLC
[22] = system: UACC-257 melanoma
[23] = system: RXF 393 renal
[24] = system: CCRF-CEM leukemia
[25] = system: IGROV1 ovarian
[26] = system: NCI-H522 lung
[27] = system: HCC-2998 colon

In the case of `CSc1ccc2c3c(n(C[C@H](O)CO)c(=O)c2c1)-c1ccccc1C3=O`, the GI50 [1] is reported as 2.57 µM, the TGI [1] is reported as 12.6 µM and the GI50 [2] is reported as 2.77 µM. The TGI [2] was 22.8 µM, the GI50 [3] was 12.9 µM and the TGI [3] was 93.9 µM. For the same molecule, the GI50 [4] was 9.95 µM, the TGI [4] was over 100 µM and the GI50 [5] was 4.46 µM. It also gave a TGI [5] of 48.8 µM, a GI50 [6] of 1.19 µM and a TGI [6] of 7.49 µM. It also gave a GI50 [7] of 1.53 µM, a TGI [7] of 8.94 µM and a GI50 [8] of 2.52 µM. For the same molecule, the TGI [8] was 9.22 µM, the GI50 [9] was 4.76 µM and the TGI [9] was 37.5 µM. It also gave a GI50 [10] of 2.85 µM, a TGI [10] of 45.8 µM and a GI50 [11] of 1.94 µM. It also gave a TGI [11] of 13.6 µM, a GI50 [12] of 4.44 µM and a TGI [12] of 49.9 µM. The GI50 [13] was 1.04 µM, the TGI [13] was 3.47 µM and the GI50 [14] was 1.75 µM. The TGI [14] was 3.76 µM, the GI50 [15] was 3.42 µM and the TGI [15] was over 100 µM. It also gave a GI50 [16] of 1.39 µM, a TGI [16] of 4.64 µM and a GI50 [17] of 1.33 µM. The TGI [17] was 6.38 µM, the GI50 [18] was 1.83 µM and the TGI [18] was 7.27 µM. The GI50 [19] was 1.62 µM, the TGI [19] was 4.86 µM and the GI50 [20] was 4.64 µM. For the same molecule, the TGI [20] was over 100 µM, the GI50 [21] was 3.89 µM and the TGI [21] was 88 µM. For the same molecule, the GI50 [22] was 13.2 µM, the TGI [22] was 42.6 µM and the GI50 [23] was 3.5 µM. The TGI [23] was 23.3 µM, the GI50 [24] was 1.02 µM and the TGI [24] was 7.1 µM. It also gave a GI50 [25] of 3.77 µM, a TGI [25] of 85.3 µM and a GI50 [26] of 2 µM. For the same molecule, the TGI [26] was 25.5 µM and the GI50 [27] was 3.32 µM.

— PubChem BioAssay (NCI)
